Assay results published in patent publication US5352685A, “Thieno[3,2-b]pyridine derivatives” (priority 1992, dated 1994).
Counter-ions that a name gives are not always drawn.

Legend:
dog gastric contraction = assay: Promoting action of dog gastric contraction; type: in vivo, dog (adult mongrel); conditions: Canis lupus familiaris, iv, 0.5 h; i.v.; starved dogs; contraction for 30-minute interval after dose vs. IMC contraction immediately before; read-out: ED50 (dose developing 50% of the IMC contraction)
Procedure: 2) Promoting action of dog gastric contraction An implant-type strain-gauge transducer was sutured onto the serosa at the autrum (about 3 cm above pylorus) of adult mongrel dogs, weighed 11 to 15 kg, so as to determine the contraction of the circular muscle. Two weeks or more after the surgery, the gastric contraction was recorded for analysis with a data processing device. […] The dog was put to starvation for about 16 hours. Ten minutes after the completion of one IMC, a test compound was intravenously administered. The contraction for the 30-minute interval thereafter was represented as a percentage (%) to the IMC contraction having occurred immediately before, and the dose developing the 50% contraction was defined as ED50.

[1] = target: T1, 5-HT3 (serotonin 3) receptor (Rattus norvegicus, UniProt P35563); assay: 5-HT3 antagonistic action (antagonistic action of Bezold-Jarish reflex) in anesthetized rat; type: in vivo; conditions: iv, 5 min; i.v.; 5-HT 8 μg/kg i.v.; male Wistar rat under urethane anesthesia; read-out: ID50 (dose with inhibition ratio of 50%, Bezold-Jarish reflex)
T1 construct: from tissue; host or cells: living anaesthetized male Wistar rat (in vivo; endogenous receptor)
T1 sequence (P35563 24-483): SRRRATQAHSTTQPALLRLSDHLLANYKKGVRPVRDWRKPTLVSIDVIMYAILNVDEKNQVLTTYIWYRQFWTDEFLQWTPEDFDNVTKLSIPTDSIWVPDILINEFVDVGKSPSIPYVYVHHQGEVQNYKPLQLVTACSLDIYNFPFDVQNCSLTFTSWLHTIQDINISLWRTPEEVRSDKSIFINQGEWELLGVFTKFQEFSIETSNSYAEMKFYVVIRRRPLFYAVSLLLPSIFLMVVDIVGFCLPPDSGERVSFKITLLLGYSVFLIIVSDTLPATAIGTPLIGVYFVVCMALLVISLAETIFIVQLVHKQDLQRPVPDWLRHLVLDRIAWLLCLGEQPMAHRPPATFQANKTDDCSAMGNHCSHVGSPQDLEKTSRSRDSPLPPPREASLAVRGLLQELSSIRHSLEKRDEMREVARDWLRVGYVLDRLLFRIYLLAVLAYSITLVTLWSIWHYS
Procedure: 3) 5-HT3 antagonistic action (antagonistic action of Bezold-Jarish reflex)
According to the following method, the assessment of a compound in terms of the antagonistic action of Bezold-Jarish reflex triggered by 5-HT was carried out in a rat under anesthesia.
A male Wistar rat, weighed 300 to 400 g, was anesthetized with an intra-parenteral dose of 1.2 g/kg urethane, to monitor the heart rate triggered by electrocardiography. Five minutes after saline was intravenously administered (0.5 ml/kg) to the rat, 5-HT (8 μg/kg) dissolved in saline (0.5 ml/kg) was intravenously administered firstly, to measure the change in […] (A). To the same rat after 10 minutes interval, the test compound was intravenously administered, 5 minutes later 5-HT was administered in the same fashion, to measure the change in heart rate (B). Based on these values, the inhibition ratio of the test compound was calculated by the following formula:
inhibition ratio=(1-B/A)×100
Also, the dose with the inhibition ratio of 50% was defined as the ID50 of the test compound.

[2] = Acute toxicity, oral, mice; type: in vivo, mouse (male ddy); conditions: orally 1000 mg/kg; 3 mice per compound; observation 7 days
Procedure: For the test of acute toxicity, male ddy mice (body weight; 25 to 30 g, 3 mice for one test compound) were used. Test compound of Example 1 or 2 was orally administered at 1000 mg/kg.

mouse gastric emptying = assay: Promoting action of mouse gastric emptying; type: in vivo; conditions: 1 mg/kg, p.o.; 24-hour starved male ddy mice; control group (distilled water) defined as 100%
Procedure: Promoting action of mouse gastric emptying Male, ddy mice (body weight; 20 to 25 g) were used. 24-Hour after starvation 1 mg/kg test compounds dissolved in distilled water were orally administered (10 ml/kg). To the control group distilled water was orally administered (10 ml/kg). One hour later, a 2000 ppm phenol red solution (suspended in aqueous 0.5% carboxymethyl cellulose solution) was administered to each mouse (liquid dose; 0.05 ml/mouse). Then, 15 minutes later, the animals were killed to remove the stomachs. The phenol red retained in the stomachs was developed in 20 ml of a 2.75% trisodium phosphate solution, and analyzed with an absorption photometer at a wave length of 540 nm (A). Immediately after the phenol red solution was administered, the animals were killed to quantitatively determine the phenol red left in the stomachs (B). The difference in the amount of phenol red between A and B (B-A) was designated as gastric emptying. The gastric emptying of the test compounds were shown in Table 4 below, provided that the gastric emptying of the control group was defined as 100%.

Structure (SMILES) | ED50 (dog gastric contraction) [mg/kg] | ED50 [1] [µg/kg] | death (acute toxicity) [2] | Promoting Action of Gastric Emptying (%) (mouse gastric emptying)
COc1cc(N)c(Cl)cc1C(=O)NC1CCN2CCCC1C2 (stereo not drawn) [BRL-24924, (endo)-4-amino-5-chloro-2-methoxy-N-[1-azabicyclo-(3.3.1)-non-4-yl]-benzamide hydrochloride, reference compound] | 0.1 |  |  | 
O=C(NC1CN2CCC1CC2)c1cnc2ccsc2c1O (stereo not shown) [Example 1, N-(1-azabicyclo[2.2.2]oct-3-yl)-7-hydroxythieno[3.2-b]pyridine-6-carboxamide] | 0.01 | 0.15 | no death | 147
O=C(N[C@H]1CN2CCC1CC2)c1cnc2ccsc2c1O [Example 2, R-N-(1-azabicyclo[2.2.2]oct-3-yl)-7-hydroxythieno[3.2-b]pyridine-6-carboxamide] | 0.005 |  | no death | 185
CN1[C@@H]2CC[C@H]1C[C@@H](NC(=O)c1cn(C)c3ccsc3c1=O)C2 [Example 10, (endo)-N-(8-methyl-8-azabicyclo[3.2.1]oct-3-yl)-4,7-dihydro-4-methyl-7-oxothieno[3.2-b]pyridine-6-carboxamide] |  |  |  | 140
Cc1csc2c(O)c(C(=O)NC3CN4CCC3CC4)cnc12 (stereo not shown) [Example 11] |  |  |  | 152
